Strand notation (5' to 3'): a small letter for the sugar, then the base; units joined by * are phosphorothioate-linked, units joined directly phosphodiester-linked; [ ] holds rarer units or linkages, { } end groups; capitals alone tell only the bases. e = 2'-O-(2-methoxyethyl) (MOE); l = locked nucleic acid (LNA); [5mC] = 5-methylcytosine; d = 2'-deoxy (DNA)

The first data set deals with human ABCB11 mRNA. Description: ASO treatment of primary human hepatocytes (PHH), ABCB11 mRNA by RT-qPCR normalized to B2M. It is filed as cell-based. The conditions noted are these: PHHs, 5 μM dose (FIG. 14). How it is done: Primary human hepatocytes (PHH) were thawed using Lonza Human Cryopreserved Hepatocyte Thawing Medium and plated in 96-well collagen-coated plates (5.5-6.0×10^4 cells per well). Four hours later, the media was replaced with sterile-filtered QualGro™ Hepatocyte Culture Medium (BioIVT) containing antibiotic supplement, 0.3 mg/ml Matrigel® matrix (Corning®), and ASO at the desired concentration (e.g., 1.25 μM, 2.5 μM, 5 μM, or 10 μM). After 72 hrs., cells were harvested by aspirating media, washing once with phosphate-buffered saline (PBS), and lysed with 150 μl of Buffer RLT lysis buffer (Qiagen®). Plates were frozen at-80° C. during cell lysis. After thawing, total RNA was isolated using the Qiagen RNEasy kit as instructed by manufacturer. cDNA (random-primed) was synthesized from 10 μl of RNA using the LifeTech High Capacity cDNA Reverse Transcription kit. 2 μl of cDNA was used for reverse transcription-quantitative PCR (RT-qPCR) analyses using standard Taqman” reagents from Applied Biosystems™ to measure ABCB11 and CYP7A1 gene expression. Gene expression data was normalized to the housekeeper gene, beta-2-microglobulin (B2M).
To assess the ability of ASOs targeting ABCB11 regRNAs to modulate the expression of human ABCB11, 195 ASOs targeting the human ABCB11 regRNAs were synthesized. These initial ASOs were screened in PHHs at 5 μM to determine their efficacy in increasing human ABCB11 mRNA using quantitative PCR. This initial screen identified 10 ASOs that induced increased expression of ABCB11 mRNA by more than 1.5-fold (as compared to untreated PHHs).
(Real-time PCR tracks product formation cycle by cycle.)
Take “CO-11202: ASO containing PO-modifications identified in the Table 13 screen in PHHs (antisense eT*eG*eTeT*eT*eT*eG*e[5mC]eT*eT*eG*eG*eTe[5mC]*eA*eA*eG*eAeG*eG)”: the “ABCB11 mRNA fold change” value is recorded as around 2 fold.

Still in this data set, the particulars now being: PHHs, 10 μM dose (FIG. 14).
As for “CO-11202: ASO containing PO-modifications identified in the Table 13 screen in PHHs (antisense eT*eG*eTeT*eT*eT*eG*e[5mC]eT*eT*eG*eG*eTe[5mC]*eA*eA*eG*eAeG*eG)”, the “ABCB11 mRNA fold change” value is around 3.5 fold.

The same data set, now with this note: PHHs, comparison study with OCA, elafibranor, fenofibrate (FIG. 14).
“CO-11202: ASO containing PO-modifications identified in the Table 13 screen in PHHs (antisense eT*eG*eTeT*eT*eT*eG*e[5mC]eT*eT*eG*eG*eTe[5mC]*eA*eA*eG*eAeG*eG)”: the “ABCB11 mRNA expression, dose response” value is recorded as “dose-dependent increase”.

The data set is the same for the next values; noted with them: primary human hepatocytes, 5 μM ASO with PO-modifications, normalized to untreated hepatocytes.
Turning to “CO-12753 (antisense eG*eTeG*eA*eGeG*e[5mC]*eAeT*e[5mC]*eAeG*eG*eTeA*eA*eGeT*eT*e[5mC])”, the “ABCB11 FC mRNA (5 μM ASO vs. untreated)” value is 1.03 fold change.
In the case of “CO-11202: ASO containing PO-modifications identified in the Table 13 screen in PHHs (antisense eT*eG*eTeT*eT*eT*eG*e[5mC]eT*eT*eG*eG*eTe[5mC]*eA*eA*eG*eAeG*eG)”, the “ABCB11 FC mRNA (5 μM ASO vs. untreated)” value is 1.50 fold change.
Consider “CO-11198 (antisense eT*eG*eT*eT*eTeTeG*e[5mC]*eT*eT*eG*eG*eT*e[5mC]eAeA*eG*eA*eG*eG)”, for which the “ABCB11 FC mRNA (5 μM ASO vs. untreated)” value worked out at 0.97 fold change.
On to “CO-11224 (antisense eG*eT*lGeGeAlGe[5mC]*eA*lA*eA*e[5mC]*lT*eA*eGlGe[5mC]eAl[5mC]*eT*eG)”, for which the “ABCB11 FC mRNA (5 μM ASO vs. untreated)” value was determined as 1.88 fold change.
The same measure, in the same setting: the value for “CO-11234 (antisense eG*eT*eG*eG*lAeGe[5mC]*eA*eA*lA*e[5mC]*eT*eA*eGlGe[5mC]*eA*e[5mC]*eT*eG)” was 1.55 fold change.
“CO-11204 (antisense eT*eG*eT*eT*eTeT*eG*e[5mC]*eTeT*eG*eG*eTe[5mC]*eA*eA*eGeA*eG*eG)”: the “ABCB11 FC mRNA (5 μM ASO vs. untreated)” value is given as 1.15 fold change.
Same read-out and setting: then “CO-11213 (antisense eG*eTlGeGlAeGl[5mC]*eA*lA*eA*l[5mC]*eT*lA*eGlGe[5mC]lAe[5mC]eT*eG)”, with 1.95 fold change.
“CO-11216 (antisense eG*eT*lG*eG*lAeG*l[5mC]*eA*lAeA*l[5mC]*eT*lAeG*lG*e[5mC]*lAe[5mC]*eT*eG)”: the “ABCB11 FC mRNA (5 μM ASO vs. untreated)” value was 2.58 fold change.

Still in this data set, the particulars now being: primary human hepatocytes, 5 μM ASO, normalized to untreated PHHs (UNT).
As for “CO-7160 (antisense eT*eG*eT*eG*eG*eA*eG*eG*eT*eG*eG*eA*eG*e[5mC]*eA*eA*eA*e[5mC]*eT*eA)”, the “ABCB11 mRNA FC (5 μM ASO vs. UNT)” value is recorded as 1.312 fold change.
Regarding “CO-4052 (antisense e[5mC]*e[5mC]*eA*eG*eG*eG*eT*eG*e[5mC]*eA*eA*eG*eA*eG*eT*eT*eG*eT*e[5mC]*eT)”, the “ABCB11 mRNA FC (5 μM ASO vs. UNT)” value came out at 1.054 fold change.
On to “CO-7027 (antisense e[5mC]*eG*eA*e[5mC]*eA*eG*eT*eG*eA*eG*e[5mC]*eT*eT*eA*eT*e[5mC]*eT*eG*eG*eA)”, for which the “ABCB11 mRNA FC (5 μM ASO vs. UNT)” value came out at 1.304 fold change.
Still for that read-out and setting: then “CO-7110 (eT*eA*e[5mC]*eA*eT*eT*eT*dA*dG*dA*dG*dA*d[5mC]*dA*dA*dA*dG*eA*eA*eT*e[5mC]*eG*e[5mC]*eT; antisense)”, with 1.035 fold change; and “CO-7101 (eA*eT*e[5mC]*eT*eG*lG*dA*dA*lA*dA*dT*dA*dA*lT*dG*d[5mC]*l[5mC]*eT*eT*eT*e[5mC]*eT; antisense)”, with 1.165 fold change.
Still for that read-out and setting: then “CO-7111 (TACATTTAGAGACAAAGAATCGCT; fully MOE, PS/PO backbone, 5-methylcytosine; listed as RNA; modified_base 1..24: mod_base = OTHER; note = Phosphorothioate linkage; note = 2'-O-(2-methoxyethyl) ribonucleotide; modified_base 3: mod_base = OTHER; note = 5-methyl cytidine; modified_base 13: mod_base)”, with 1.027 fold change; and “CO-3999 (antisense eG*eG*e[5mC]*eA*eA*e[5mC]*e[5mC]*eT*e[5mC]*eG*eT*e[5mC]*e[5mC]*e[5mC]*e[5mC]*eT*e[5mC]*eA*e[5mC]*eT)”, with 1.076 fold change; and “CO-7054 (antisense eA*e[5mC]*e[5mC]*e[5mC]*e[5mC]*d[5mC]*d[5mC]*dT*d[5mC]*dA*d[5mC]*d[5mC]*dT*dT*dG*eG*eT*eT*e[5mC]*e[5mC])”, with 1.323 fold change.
In the case of “CO-7148: derivative ASO with additional chemical modifications based on parent ASO CO-4517 (antisense e[5mC]*e[5mC]*eT*eT*eA*eG*dG*dA*dG*dG*dA*dT*dT*dA*dT*dT*eT*eA*eA*e[5mC]*e[5mC]*eT)”, the “ABCB11 mRNA FC (5 μM ASO vs. UNT)” value amounted to 1.527 fold change.
For the substance “CO-7171 (antisense eA*eG*eT*e[5mC]*eT*eT*eA*eT*eT*eT*eG*eG*e[5mC]*eG*eT*eT*eA*eT*eT*eA)”, the “ABCB11 mRNA FC (5 μM ASO vs. UNT)” value came to 1.46 fold change.
In the case of “CO-4047 (antisense eG*e[5mC]*eA*eA*eT*e[5mC]*eT*eT*eT*eT*eA*eT*eA*eT*eT*eG*eA*eG*eG*eG)”, the “ABCB11 mRNA FC (5 μM ASO vs. UNT)” value is 0.676 fold change.
As for “CO-4036 (antisense eG*e[5mC]*eA*eA*eA*eT*eA*eG*eA*eT*eA*eA*eT*eG*eT*eT*e[5mC]*eT*eT*eG)”, the “ABCB11 mRNA FC (5 μM ASO vs. UNT)” value is 1.235 fold change.
For the substance “CO-4491 (antisense eG*eA*eG*eG*eT*eT*eG*eA*e[5mC]*eA*eA*eA*eT*eA*eG*eG*eT*eG*eT*eG)”, the “ABCB11 mRNA FC (5 μM ASO vs. UNT)” value is on record as 1.101 fold change.
For “CO-4023 (antisense e[5mC]*eA*e[5mC]*eA*eA*e[5mC]*eA*eT*eT*eG*eT*eA*eT*eA*e[5mC]*eA*eA*eT*eA*e[5mC])”, the “ABCB11 mRNA FC (5 μM ASO vs. UNT)” value was 1.092 fold change.
Turning to “CO-4033 (antisense eG*eA*eA*eA*e[5mC]*e[5mC]*eT*eT*eT*eT*eA*eA*e[5mC]*eT*e[5mC]*eT*e[5mC]*e[5mC]*eA*e[5mC])”, the “ABCB11 mRNA FC (5 μM ASO vs. UNT)” value was determined as 1.472 fold change.
The same measure, in the same setting: the value for “CO-4506 (antisense eT*eG*e[5mC]*eA*eT*eT*eG*e[5mC]*eA*eT*eG*eT*eT*eG*eA*eG*e[5mC]*eT*eG*eG)” was 1.169 fold change; that for “CO-7023 (antisense e[5mC]*eT*eT*eA*eT*e[5mC]*eT*eG*eG*eA*eA*eA*eA*eT*eA*eA*eT*eG*e[5mC]*e[5mC])” was 1.338 fold change.
In the case of “CO-7163 (antisense e[5mC]*eA*eG*eA*e[5mC]*eA*eT*eG*eA*eT*eG*eT*eG*eG*eA*eG*eG*eT*eG*eG)”, the “ABCB11 mRNA FC (5 μM ASO vs. UNT)” value is listed as 1.308 fold change.
Take “CO-7103 (eT*eA*eT*e[5mC]*eT*eG*eG*eA*eA*eA*eA*eT*eA*eA*eT*eG*e[5mC]*e[5mC]*eT*eT*eT*e[5mC]*eT*eA; antisense)”: the “ABCB11 mRNA FC (5 μM ASO vs. UNT)” value is 1.006 fold change.
With “CO-7185 (antisense eT*eG*eG*e[5mC]*eG*lT*dT*dA*lT*dT*dA*lA*dT*dT*l[5mC]*eT*eA*e[5mC]*eA*eG)”, the “ABCB11 mRNA FC (5 μM ASO vs. UNT)” value was 1.327 fold change.
Regarding “CO-4043 (antisense eG*e[5mC]*e[5mC]*e[5mC]*eA*e[5mC]*eT*e[5mC]*eT*eG*e[5mC]*eT*e[5mC]*eA*eA*eT*eT*eT*eG*e[5mC])”, the “ABCB11 mRNA FC (5 μM ASO vs. UNT)” value is 1.934 fold change.
On to “CO-7014 (antisense eA*eG*eT*eG*eA*eG*eG*e[5mC]*eA*eT*e[5mC]*eA*eG*eG*eT*eA*eA*eG*eT*eT*e[5mC]*e[5mC])”, for which the “ABCB11 mRNA FC (5 μM ASO vs. UNT)” value is listed as 1.293 fold change.
Same read-out and setting: then “CO-4048 (antisense eA*eG*e[5mC]*eA*eT*e[5mC]*eT*eG*eG*eA*eT*e[5mC]*e[5mC]*eT*eG*e[5mC]*eA*eA*e[5mC]*e[5mC])”, with 1.448 fold change; and “CO-7001 (antisense eG*eT*eG*eA*lG*eG*e[5mC]*eA*lT*e[5mC]*eA*eG*lGeT*eA*eA*lG*eT*eT*e[5mC])”, with 1.237 fold change.

(Values after patent publication US20250320496A1, “MODULATION OF ABCB11 GENE TRANSCRIPTION USING ANTISENSE OLIGONUCLEOTIDES TARGETING REGULATORY RNAS” (CAMP4 Therapeutics Corporation, priority 2022, published 2025).)
